In patent publication US20030232057A1, “Method and composition for inducing tolerance to an antigenic material” (priority 2000, published 2003):

Columns and labels:
Format in all cases: in vivo, Balb/c mice
[1] = test system: anti-BLG IgE; assay: Measurement of specific anti-BLG IgE antibody in serum by ELISA; conditions: 26 days post-tolerization; whey vs non-tolerized mice (p<0.05), drugs vs whey proteins fed mice
Description: To start the experiment the mice were forced fed and/or injected i.p. with butyrate (which promotes COX-2 activity), ibuprofen (which inhibits COX activity) or saline (control) daily from day −3 to day 4. On day 0, the mice were fed by gastric feeding whey proteins (3 mg/g of body weight) or same volume of saline water. Gavage products were dissolved in 0.3 ml of saline water. At day 4 of each experiment, all mice were immunized by intraperitoneal injection of 0.08 mg of BLG as well as 0.08 mg of OVA in 0.04 ml sterile saline mixed with 0.16 ml 2% Al(OH)3 (Superfos Biosecotr A/S, Denmark). […] (^3H)Tdr (Amersham, Zurich) was added for the final 6 hours of culture and the plates were harvested and analyzed by scintillation counting (TopCount, Canberra Packard, Zurich). […] Stimulation indices were calculated as the ratio of blank-subtracted test and control values at 2.5 mg BLG/mL and 50 μg PHA/mL. […] Optical densities were measured at 492 nm, after 15 mn of incubation at room temperature, using a Dynatech MR500 ELISA reader (Dynatech, Embrach-Embraport, Switzerland. Pooled samples from twenty non immunized female mice were used as negative controls in each plate. The cut-off dilutions were determined by calculating the dilution of the samples which gave twice the absorbance of the negative controls. Titers were expressed as the log10 of the reciprocal of the cut-off dilution.

[2] = test system: BLG-stimulated lymphocytes; assay: Cytokine ELISA (IFN-γ) in supernatants of BLG-stimulated spleen cells from treated mice; conditions: mice fed whey proteins 3 mg/g on day 0; drug daily day -3 to day 4; 5 days after tolerization; whey vs non-tolerized control mice, drugs vs whey proteins fed mice
Description: To start the experiment the mice were forced fed and/or injected i.p. with butyrate (which promotes COX-2 activity), ibuprofen (which inhibits COX activity) or saline (control) daily from day −3 to day 4. On day 0, the mice were fed by gastric feeding whey proteins (3 mg/g of body weight) or same volume of saline water. Gavage products were dissolved in 0.3 ml of saline water. At day 4 of each experiment, all mice were immunized by intraperitoneal injection of 0.08 mg of BLG as well as 0.08 mg of OVA in 0.04 ml sterile saline mixed with 0.16 ml 2% Al(OH)3 (Superfos Biosecotr A/S, Denmark). At day 4 or at day 26, blood samples were obtained from cardiac aortic punction under 3% Isoflurane anaesthesia (Abbott SA). Immediately after death, obtained by cervical dislocation, spleens were removed and pooled according to group of treatment in 20 ml chilled RPMI supplemented with 5% FCS. […] (^3H)Tdr (Amersham, Zurich) was added for the final 6 hours of culture and the plates were harvested and analyzed by scintillation counting (TopCount, Canberra Packard, Zurich). […] Stimulation indices were calculated as the ratio of blank-subtracted test and control values at 2.5 mg BLG/mL and 50 μg PHA/mL. […] IFN-γ levels were measured using cytokine specific ELISA kit Endogen; which were performed according to the manufacturers' instructions. […]

[3] = test system: BLG-stimulated lymphocytes; assay: Prostaglandin E2 measurement (EIA) in culture media of lymphocytes from treated mice; conditions: mice fed whey proteins 3 mg/g on day 0; drug daily day -3 to day 4; 5 days after tolerization; whey vs non-tolerized control mice, drugs vs whey proteins fed mice
Description: To start the experiment the mice were forced fed and/or injected i.p. with butyrate (which promotes COX-2 activity), ibuprofen (which inhibits COX activity) or saline (control) daily from day −3 to day 4. On day 0, the mice were fed by gastric feeding whey proteins (3 mg/g of body weight) or same volume of saline water. Gavage products were dissolved in 0.3 ml of saline water. At day 4 of each experiment, all mice were immunized by intraperitoneal injection of 0.08 mg of BLG as well as 0.08 mg of OVA in 0.04 ml sterile saline mixed with 0.16 ml 2% Al(OH)3 (Superfos Biosecotr A/S, Denmark). At day 4 or at day 26, blood samples were obtained from cardiac aortic punction under 3% Isoflurane anaesthesia (Abbott SA). Immediately after death, obtained by cervical dislocation, spleens were removed and pooled according to group of treatment in 20 ml chilled RPMI supplemented with 5% FCS. […] (^3H)Tdr (Amersham, Zurich) was added for the final 6 hours of culture and the plates were harvested and analyzed by scintillation counting (TopCount, Canberra Packard, Zurich). […] Stimulation indices were calculated as the ratio of blank-subtracted test and control values at 2.5 mg BLG/mL and 50 μg PHA/mL. PGE2 levels in the culture media, from lymphocytes cultured for 6 hrs or 12 hrs, were determined by using an enzyme immunoassay (EIA) kit (Cayman Chemical, ). […]

[4] = test system: spleen cells; assay: Specific proliferation assay ((3H)Tdr incorporation) of spleen cells from treated mice; conditions: 4 days post-tolerization; index below 0.5 indicates tolerized mice; drugs compared with whey proteins fed mice
Description: To start the experiment the mice were forced fed and/or injected i.p. with butyrate (which promotes COX-2 activity), ibuprofen (which inhibits COX activity) or saline (control) daily from day −3 to day 4. On day 0, the mice were fed by gastric feeding whey proteins (3 mg/g of body weight) or same volume of saline water. Gavage products were dissolved in 0.3 ml of saline water. At day 4 of each experiment, all mice were immunized by intraperitoneal injection of 0.08 mg of BLG as well as 0.08 mg of OVA in 0.04 ml sterile saline mixed with 0.16 ml 2% Al(OH)3 (Superfos Biosecotr A/S, Denmark). At day 4 or at day 26, blood samples were obtained from cardiac aortic punction under 3% Isoflurane anaesthesia (Abbott SA). Immediately after death, obtained by cervical dislocation, spleens were removed and pooled according to group of treatment in 20 ml chilled RPMI supplemented with 5% FCS. Spleen cell solutions were homogenized through a cellular sieve (Falcon) and purified from red cells using Histopaque density centrifugation (Sigma) at 390×g for 20 min. […] (^3H)Tdr (Amersham, Zurich) was added for the final 6 hours of culture and the plates were harvested and analyzed by scintillation counting (TopCount, Canberra Packard, Zurich). […] Stimulation indices were calculated as the ratio of blank-subtracted test and control values at 2.5 mg BLG/mL and 50 μg PHA/mL. […]

CC(C)Cc1ccc(C(C)C(=O)O)cc1 (stereo not shown) [ibuprofen]
not observed: humoral anti-BLG IgE titers [1] | INF-γ production by BLG-stimulated lymphocytes in culture [2] | PGE2 production by BLG-stimulated lymphocytes in culture [3] | proliferative response index (stimulation index) [4]
